# Tested on: hiPSC clone FTi111
# Assay: Post-thaw recovery of hiPSC clone in various culture environments
# Assay type: cell-based, human
# Conditions: conventional culture with feeder cells
structure (smiles),measurement,value
O=C(NCc1ccccc1)c1csc(Nc2ccncn2)n1 [Thiazovivin],recovery of hiPSC colonies after thaw,only recovered in the presence of Thiazovivin

# Source: US11441126B2, “Platform for the induction and maintenance of ground state pluripotency” (Fate Therapeutics, Inc., priority 2015, dated 2022)
